Results reported in patent US7879861B2, “Combi-molecules having EGFR and DNA targeting properties” (priority 2005, dated 2011).
Where two headings read alike, the source gives them in different places. Blank lines part the entries; values can stand above or below the molecule they belong to.

Tests used:
MDA-MB-468 cells [1] = assay: Reversibility of antiproliferative effect, SRB assay; assay type: cell-based, human
Protocol: (§1) In vitro growth inhibition assay: To study the effect of the compounds on growth factor stimulated-proliferation, cells were grown to 70% of confluence in 48-well plates. […] Cell growth was measured using the sulforhodamine B (SRB) assay (24). Briefly, following drug treatment, cells were fixed using 50 μl of cold trichloroacetic acid (50%) for 60 min at 4° C., washed five times with tap water, and stained for 30 min at room temperature with SRB (0.4%) and dissolved in acetic acid (0.5%). The plates were rinsed five times with 1% acetic acid and allowed to air dry. The resulting colored residue was dissolved in 200 μl of Tris base (10 mM), and the optical density read for each well at 450 nm using a Bio-Rad microplate reader (model 2550). […] Cell growth was measured using SRB assay as described previously.

MDA-MB-468 cells [2] = assay: Annexin V binding (apoptosis), flow cytometry; assay type: cell-based, human; details: for levels of apoptosis: 5 μM, 24, 48 and 72 h
Protocol: Annexin V Binding: Cells were grown in 6-well plates until confluence and then incubated with the compounds for 24 h, 48 and 72 h. The cells were then harvested, washed twice with PBS, and centrifuged. Cells (10^5) were treated with annexin V-FITC and propidium iodide (PI) using the Apoptosis Detection Kit (BD Bioscience Pharmingen, USA) and the supplier's protocol. Annexin V-FITC and PI binding were analyzed by flow cytometry. Data were collected using logarithmic amplification of both the FL1 (FITC) and FL2 (PI) channels. Quadrant analysis of co-ordinate dot plots was performed with CellQuest software. Unstained cells were used to adjust the photomultiplier voltage and for compensation setting adjustment in order to eliminate spectral overlap between the FL1 and FL2 signals.

[3] = test system: human breast carcinoma MDA-MB-468; assay: In vivo efficacy, MDA-MB-468 implanted in the mammary fat pad; set-up: species or system SCID mice
Protocol: In vivo studies: SCID mice were maintained as per McGill animal safety protocols. In a preliminary model, SCID mice housed in filtered cages were implanted subcutaneously (s.c.) with the human breast carcinoma MDA-MB-468 and treatment began when the tumors were palpable (8 mice/group). […] The tumor burdens were measured with a caliper and mice were weighed twice weekly. The study was later repeated with the MDA-MB-468 cells implanted in the mammary fat pad, a model that better mimics human breast carcinoma.

Water solubility = assay type: physicochemical
MDA-MB-453 cells = assay: Reversibility of antiproliferative effect, SRB assay; assay type: cell-based, human
Protocol: as §1

EGFR [4] = target: T1, EGFR (Homo sapiens, UniProt P00533); assay: EGFR kinase assay (ELISA, PGT substrate phosphorylation); assay type: biochemical; set-up: endogenous in cells; details: 10 min exposure; read-out: IC50, EGFR inhibitory potency, purified enzyme assay
LNCaPerbB2 = assay: 6 day growth inhibition assay, LNCaP panel; details: Homo sapiens, 144 h, read-out: IC50, LNCaPerbB2 transfected cell line
DU145 = assay: Growth inhibition in androgen independent prostate cancer cell line; details: Homo sapiens
[5] = Rate of decomposition by fluorescence spectroscopy (formation of amine 1); assay type: physicochemical; details: excitation 279, emission 451
Protocol: (§2) The degradation of double-arm combi-triazenes 5-9 has been investigated by HPLC. […] The rates of decomposition of bis-triazenes 7, 8 and 9 were measured by fluorescence spectroscopy by monitoring the formation of 1 (excitation: 279 and emission: 451). The determined half-lives ranged from 2 h for 7 and 8 to 3 h 20 min for 9.

NIH3T3 [6] = assay: Growth inhibition in isogenic NIH3T3 panel (double-arm combi-triazenes); assay type: cell-based; details: Mus musculus, FIG. 14
NIH3T3/neu = assay: as above; assay type: cell-based, mouse; details: for IC50: Mus musculus, NIH3T3, FIG. 14; for fold selectivity for neu transfectant: vs NIH3T3
NIH3T3/Her14 = assay: as above; assay type: cell-based, mouse; details: for IC50: Mus musculus, NIH3T3, FIG. 14; for fold selectivity for EGFR transfectant: vs NIH3T3
NIH3T3neu [7] = target: T2, NIH3T3neu (UniProt P04626, cells depend on it, species not given); assay: Blockade of serum-stimulated growth, SRB assay (Table 1); assay type: cell-based, mouse; details: serum-stimulated growth; read-out: Inhibition of growth stimulation of NIH3T3neu
T2 construct: other: serum-stimulated growth
Protocol: (§3) In vitro growth inhibition assay: To study the effect of the compounds on growth factor stimulated-proliferation, cells were grown to 70% of confluence in 48-well plates. They were subsequently washed twice with PBS, incubated in serum-free medium for 18 h and exposed to each drug+growth factors (EGF, TGFα, PDGF or serum) for 72 h. Cell growth was measured using the sulforhodamine B (SRB) assay (24). Briefly, following drug treatment, cells were fixed using 50 μl of cold trichloroacetic acid (50%) for 60 min at 4° C., washed five times with tap water, and stained for 30 min at room temperature with SRB (0.4%) and dissolved in acetic acid (0.5%). The plates were rinsed five times with 1% acetic acid and allowed to air dry. The resulting colored residue was dissolved in 200 μl of Tris base (10 mM), and the optical density read for each well at 450 nm using a Bio-Rad microplate reader (model 2550). […] Cell growth was measured using SRB assay as described previously.

NIH3T3 [8] = assay: as above; assay type: cell-based; details: Mus musculus, read-out: Inhibition of growth stimulation of NIH3T3
Protocol: as §3

A431 = assay: Inhibition of basal growth (Table 1); assay type: cell-based; details: Homo sapiens, A-431
Protocol: as §3

EGFR [9] = target: T1, EGFR; assay: EGFR kinase assay (ELISA, PGT substrate phosphorylation); assay type: biochemical; set-up: endogenous in cells; details: Table 1, inhibition of EGFR kinase; read-out: EGFR Binding
Protocol: Kinase assays: The EGFR kinase assay is similar to the one described in previously published procedures (19, 20). Nunc Maxisorp 96-well plates were incubated overnight at 37° C. with 100 μl/well of 0.25 mg/ml poly (L-glutamic acid-L-tyrosine, 4:1) PGT in PBS. Excess PGT was removed and the plate was washed three times with wash buffer (Tween 20 (0.1%) in PBS). […] The compound was added and phosphorylation initiated by the addition of ATP 50 μM. After 8 min at room temperature with constant shaking, the reaction was terminated by aspiration of the reaction mixture and rinsing the plate four times with wash buffer. […] Antibody was removed by aspiration, and the plate washed four times with wash buffer.

NIH3T3neu [10] = assay: Blockade of serum-stimulated growth, SRB assay (Table 1); assay type: cell-based, mouse; details: FIG. 12, 72 h
Protocol: as §3

[11] = Degradation in serum at 37° C. by HPLC; assay type: in vitro ADME; details: 24 h incubation in serum at 37° C.; release of 2 eq. of amine taken for 100%
Protocol: as §2

[12] = DU-145, 144 h, read-out: IC50, 6 day continued growth inhibition assay
[13] = DU-145, read-out: IC50, growth inhibition in DU145

T1 sequence (P00533 25-1210): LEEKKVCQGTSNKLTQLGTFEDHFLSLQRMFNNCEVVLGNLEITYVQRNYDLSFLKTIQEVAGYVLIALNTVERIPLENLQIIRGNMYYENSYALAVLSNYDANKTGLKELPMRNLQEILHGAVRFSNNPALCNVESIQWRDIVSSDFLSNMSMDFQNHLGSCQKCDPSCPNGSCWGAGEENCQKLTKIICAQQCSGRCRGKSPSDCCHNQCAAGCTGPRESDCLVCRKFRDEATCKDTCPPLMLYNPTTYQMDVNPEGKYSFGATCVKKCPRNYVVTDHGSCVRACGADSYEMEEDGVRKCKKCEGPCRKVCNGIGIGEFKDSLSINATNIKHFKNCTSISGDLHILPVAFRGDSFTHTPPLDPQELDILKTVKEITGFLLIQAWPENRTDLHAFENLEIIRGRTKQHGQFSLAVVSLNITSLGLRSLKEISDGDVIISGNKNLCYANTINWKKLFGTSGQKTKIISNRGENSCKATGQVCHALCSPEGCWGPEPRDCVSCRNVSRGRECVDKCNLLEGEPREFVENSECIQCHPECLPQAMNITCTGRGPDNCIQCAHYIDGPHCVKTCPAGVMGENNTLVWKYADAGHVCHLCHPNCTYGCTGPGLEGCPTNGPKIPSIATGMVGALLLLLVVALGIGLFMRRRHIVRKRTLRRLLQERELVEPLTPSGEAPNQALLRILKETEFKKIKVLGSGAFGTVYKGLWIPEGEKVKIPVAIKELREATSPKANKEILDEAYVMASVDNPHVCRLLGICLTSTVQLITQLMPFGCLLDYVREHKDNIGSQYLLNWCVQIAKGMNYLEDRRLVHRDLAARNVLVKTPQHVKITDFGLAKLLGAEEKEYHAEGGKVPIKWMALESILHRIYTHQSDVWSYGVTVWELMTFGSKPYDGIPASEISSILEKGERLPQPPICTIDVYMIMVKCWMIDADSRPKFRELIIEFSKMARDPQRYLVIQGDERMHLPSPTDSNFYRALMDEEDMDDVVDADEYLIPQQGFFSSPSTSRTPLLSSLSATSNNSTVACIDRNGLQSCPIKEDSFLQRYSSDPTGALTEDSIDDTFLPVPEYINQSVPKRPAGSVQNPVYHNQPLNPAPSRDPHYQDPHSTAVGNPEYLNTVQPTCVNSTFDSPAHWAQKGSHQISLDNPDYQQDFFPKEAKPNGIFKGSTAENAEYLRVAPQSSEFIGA

Structure (SMILES): ClCCNc1ccc2ncnc(Nc3cccc(Cl)c3)c2c1 [ZR2003]
IC50 (MDA-MB-468 cells [1]; Homo sapiens, MDA-MB-468, 120 h, read-out: IC50, growth inhibition, 120 h continuous exposure, MDA-MB-468, SRB): 0.51 µM | IC50 (MDA-MB-468 cells [1]; Homo sapiens, MDA-MB-468, read-out: IC50, growth inhibition, 2 h exposure followed by 120 h recovery, MDA-MB-468, SRB): 4.81 µM | concentration at which detectable levels of apoptosis start (MDA-MB-468 cells [2]): 12 µM | cell death by apoptosis compared with FD105 (MDA-MB-468 cells [2]; 12 μM, 48 h): significantly higher levels of cell death by apoptosis | in vivo antiproliferative activity ([3]; 50 mg/kg i.p. every 3-4 days, mammary fat pad): strong antiproliferative activity | in vivo potency compared with ZR2002 ([3]; mouse, in vivo): significantly more potent | in vivo potency compared with FD105 ([3]; same dose, p<0.05): significant superior potency | water solubility (in words) (Water solubility): more hydro-soluble

Structure (SMILES): Clc1cccc(Nc2ncnc3ccc(N=NNCc4ccc(CNN=Nc5ccc6ncnc(Nc7cccc(Cl)c7)c6c5)cc4)cc23)c1 [Double-arm combi-triazene 6]
IC50 (EGFR [4]): > 10 µM | IC50 (LNCaPerbB2): 37 µM | IC50 (DU145; [12]): 35 µM

Structure (SMILES): CN(CCNN=Nc1ccc2ncnc(Nc3cccc(Cl)c3)c2c1)CCN(C)CCNN=Nc1ccc2ncnc(Nc3cccc(Cl)c3)c2c1 [Double-arm combi-triazene 8]
half-life [5]: 2 h | IC50 (NIH3T3 [6]): 0.1 µM | IC50 (NIH3T3/neu): 0.02 µM | IC50 (NIH3T3/Her14): 0.02 µM | fold more active (NIH3T3/Her14; compared with double-arm combi-triazene 9): 20 fold | IC50 (EGFR [4]): 0.05 µM | IC50 (LNCaPerbB2): 6 µM | IC50 (DU145; [12]): 3.2 µM | IC50 (DU145; [13]): 1 µM

Structure (SMILES): Nc1ccc2ncnc(Nc3cccc(Br)c3)c2c1 [ZR01, reference compound]
levels of apoptosis (MDA-MB-468 cells [2]): barely detectable levels of apoptosis

Structure (SMILES): CN(CCNN=Nc1ccc2ncnc(Nc3cccc(Cl)c3)c2c1)CCNN=Nc1ccc2ncnc(Nc3cccc(Cl)c3)c2c1 [Double-arm combi-triazene 9]
IC50 (NIH3T3 [6]): 2.3 µM | fold selectivity for neu transfectant (NIH3T3/neu): 7 fold | IC50 (NIH3T3/Her14): 0.5 µM | fold selectivity for EGFR transfectant (NIH3T3/Her14): 4 fold | IC50 (EGFR [4]): 0.003 µM | IC50 (LNCaPerbB2): 11 µM | IC50 (DU145; [12]): 2.3 µM | IC50 (DU145; [13]): 2.6 µM

Structure (SMILES): Clc1cccc(Nc2ncnc3ccc(N=NNCc4ccccc4CNN=Nc4ccc5ncnc(Nc6cccc(Cl)c6)c5c4)cc23)c1 [Double-arm combi-triazene 5]
release of parent amine 1 [11]: negligible quantities | IC50 (EGFR [4]): 7 µM | IC50 (LNCaPerbB2): 18 µM | IC50 (DU145; [12]): 12 µM

Structure (SMILES): Clc1cccc(Nc2ncnc3ccc(N=NNCCN4CCN(CCNN=Nc5ccc6ncnc(Nc7cccc(Cl)c7)c6c5)CC4)cc23)c1 [Double-arm combi-triazene 7]
half-life [5]: 2 h | IC50 (NIH3T3 [6]): 44 µM | IC50 (NIH3T3/neu): 0.4 µM | fold selectivity for neu transfectant (NIH3T3/neu): 110 fold | IC50 (NIH3T3/Her14): 0.5 µM | fold selectivity for EGFR transfectant (NIH3T3/Her14): 88 fold | IC50 (EGFR [4]): 1 µM | IC50 (LNCaPerbB2): 9 µM | IC50 (DU145; [12]): 1.8 µM | IC50 (DU145; [13]): 2.8 µM

Further lines, with some results ahead:

IC50 (MDA-MB-453 cells; Homo sapiens, MDA-MB-453, 120 h, MDA-MB-453, SRB, read-out: IC50, growth inhibition, 120 h continuous exposure): 1.81 µM | IC50 (MDA-MB-453 cells; Homo sapiens, MDA-MB-453, read-out: IC50, growth inhibition, 2 h exposure followed by 120 h recovery, MDA-MB-453, SRB): 10.3 µM | IC50 (MDA-MB-453 cells; MDA-MB-453, SRB, read-out: IC50, growth inhibition, 120 h continuous exposure): 1.71 µM | IC50 (MDA-MB-453 cells; read-out: IC50, growth inhibition, 2 h exposure followed by 120 h recovery, MDA-MB-453, SRB): 11.5 µM
Structure (SMILES): C=CC(=O)Nc1ccc2ncnc(Nc3cccc(Br)c3)c2c1 [PD168393, reference compound]
levels of apoptosis (MDA-MB-468 cells [2]): barely detectable levels of apoptosis

GI50 (NIH3T3neu [7]): 1.25 µM | IC50 (A431): 18.9 µM | IC50 (EGFR [9]): 0.014 µM
Structure (SMILES): CN(C)CCN(C)N=Nc1ccc2ncnc(Nc3cccc(Cl)c3)c2c1 [JFC30]
IC50 (NIH3T3 [8]): 13.9 µM

GI50 (NIH3T3neu [7]): 23.1 µM | IC50 (EGFR [9]): 0.29 µM
Structure (SMILES): CN(CCN(C)N=Nc1ccc2ncnc(Nc3cccc(Cl)c3)c2c1)N=Nc1ccc2ncnc(Nc3cccc(Cl)c3)c2c1 [JFC16]
IC50 (NIH3T3 [8]): 137 µM

GI50 (NIH3T3neu [7]): < 0.75 µM | IC50 (A431): 4.79 µM | IC50 (EGFR [9]): 0.003 µM
Structure (SMILES): CN(CCOCCN(C)N=Nc1ccc2ncnc(Nc3cccc(Cl)c3)c2c1)N=Nc1ccc2ncnc(Nc3cccc(Cl)c3)c2c1 [JFC31]
selectivity for NIH3T3 HER2 transfected cells in isogenic model (NIH3T3neu [10]): significant selectivity | IC50 (NIH3T3 [8]): 4.65 µM

IC50 (MDA-MB-468 cells [1]; MDA-MB-468, SRB, read-out: IC50, growth inhibition, 120 h continuous exposure): 23.6 µM | IC50 (MDA-MB-468 cells [1]; read-out: IC50, growth inhibition, 2 h exposure followed by 120 h recovery, MDA-MB-468, SRB): 192 µM
Structure (SMILES): Nc1ccc2ncnc(Nc3cccc(Cl)c3)c2c1 [FD105, reference compound]

GI50 (NIH3T3neu [7]): 1.65 µM | IC50 (A431): 23.4 µM | IC50 (EGFR [9]): 0.013 µM
Structure (SMILES): COCCN(C)N=Nc1ccc2ncnc(Nc3cccc(Cl)c3)c2c1 [JFC32]
IC50 (NIH3T3 [8]): 112 µM

GI50 (NIH3T3neu [7]): 43.3 µM | IC50 (A431): 38.1 µM | IC50 (EGFR [9]): 0.036 µM
Structure (SMILES): CN(CCN(C)N=Nc1ccc2ncnc(Nc3cccc(Cl)c3)c2c1)CCN(C)N=Nc1ccc2ncnc(Nc3cccc(Cl)c3)c2c1 [JCF29]
IC50 (NIH3T3 [8]): 186 µM
